From article PMC4335020, “Single Oral Dose Pharmacokinetics of Decursin and Decursinol Angelate in Healthy Adult Men and Women” (PLoS ONE, 2015)

Experiments:
[1] = Urinary excretion after single oral dose of Cogni.Q; format: in vivo, human; details: pooled 0-24 h urine; for number of subjects with analyte detected in urine: of 20 subjects
Protocol: Plasma was prepared by centrifuging the heparinized blood at 1000 g for 15 minutes at room temperature. Urine samples (40mL) were collected within time spans of 0–4, 4–8, 8–12 and 12–24 hours (total volume of urine was recorded). All plasma and urine samples were put on dry ice immediately and then stored at -80°C freezer until analysis.
Urine samples from each subject collected from 0 to 24 hours post-dose were pooled proportional to the volume of urine in each sampling period. Urine sample (200μL) was spiked with 5 μL of prednisolone solution (10 ng/μL, IS), and extracted with 1500 μL of ethyl acetate. The ethyl acetate fraction was recovered and dried using a SpeedVac. The dried residue was reconstituted in 50 μL of methanol for UHPLC-MS/MS analysis and 5 μL of the sample was injected.
Urine samples from each subject were pooled proportional to the amount of urine in each sampling period (hours 0–4, 4–8, 8–12 and 12–24). DA was detected in its original form in the urine of 14 subjects whereas D was only detected in the urine of 3 subjects. The levels of detectable D and DA ranged from 0.06∼1.74 nmol/L. DOH was detected in the urine of all subjects with a mean concentration of 289 nmol/L. These extractable unmodified pyranocoumarin forms accounted for the 24-hour cumulative excretion of less than 1% of the ingested pyranocoumarins. Further work is needed to estimate the extent of additional metabolites (free and conjugated forms) in urine and plasma.

[2] = set-up: method as in PMID 23364885; details: rat n = 3, oral 33.5 mg/kg D and 21.5 mg/kg DA, cited from earlier work; for Cmax: read-out: C max, nmol/, Mean (SD)

SMILES | number of subjects with analyte detected in urine [1] | AUC0–48h, h nmol/L, Mean (SD) [2] | T max, h, median (range) [2] | Cmax [2] | urine mean concentration ([1]; all subjects)
CC(C)=CC(=O)O[C@H]1Cc2cc3ccc(=O)oc3cc2OC1(C)C [D, decursin] | 3 subjects | 36.0 (14.3) h nmol/L | 1 (0.5–2) h | 7.3 nM | –
C/C=C(/C)C(=O)O[C@H]1Cc2cc3ccc(=O)oc3cc2OC1(C)C [DA, decursinol angelate] | 14 subjects | 64.3 (8.8) h nmol/L | 1 (0.5–2) h | 7.3 nM | –
CC1(C)Oc2cc3oc(=O)ccc3cc2C[C@@H]1O [DOH, decursinol] | all subjects | 81272 (6829) h nmol/L | 4 (3–8) h | 5640 nM | 289 nmol/L
